Values quoted from earlier work, collected in patent US20150366901A1, “Methods of Treating Heart Failure” (The Trustees of the University of Pennsylvania, priority 2013, published 2015).

What was measured:
[1] = test system: old mice; conditions: supplementation for 3 weeks, 478 AU before, young counterparts 332 AU
[2] = test system: healthy volunteers; conditions: ingestion of 8 mmol, 3 hours post-ingestion
[3] = nitrite formed from nitrate by oral cavity commensal bacteria

O=NO [sodium nitrite]
aortic pulse wave velocity (PWV) after supplementation [1]: 384 AU

inorganic nitrate
aortic pulse wave velocity [2]: decrease in aortic pulse wave velocity

O=[N+]([O-])O [nitrate]
half-life in plasma (circulating nitrate): ~5 h
share of circulating nitrate actively taken up by the salivary glands (concentrated in saliva, rest excreted by the kidneys): Up to 25%

O=NO [nitrite]
oral bioavailability [3]: > 95%
